Where two headings read alike, the source gives them in different places.
What was measured:
Format in all cases: in vivo
Puccinia recondita = experiment: Greenhouse test, 4 day residual, Puccinia recondita on wheat (Examples 7, 9, 12, 15); conditions: 96 h, read-out: Observed Efficacy; for pest or weed control at 0.4 ppm: dose rate 0.4 ppm; for pest or weed control at 2 ppm: dose rate 2 ppm; for pest or weed control at 10 ppm: dose rate 10 ppm; for pest or weed control at 50 ppm: dose rate 50 ppm; for pest or weed control at 4 ppm: dose rate 4 ppm; for pest or weed control at 16 ppm: dose rate 16 ppm
Protocol: (§1) The trials are carried out under greenhouse (Examples 1 to 18) or field conditions (Example 19) in residual or curative applications. The fungicides are applied in single treatments, or in a combination comprising a benzophenone of formula I and a compound selected from the classes (A) through (E) as defined above. The compounds are applied in form of an aqueous spray mix obtained from concentrated formulation or the technical material.
(§2) 1. Seed is planted in 6 cm diameter plastic pots and maintained in the greenhouse.
(§3) 2. When the primary leaf is fully expanded in the case of cereals or several leaves are present in the case of dicots, formulated test compounds are sprayed with a three nozzle overhead fungicide sprayer to near run-off. Alternatively, a single nozzle overhead track sprayer is used for application of the compounds to cereals at a rate of 200 l/ha. Plants are then allowed to air-dry.
(§4) 3. Inoculation precedes treatment in the case of curative evaluations and follows treatment in case of residual evaluations.
(§5) For inoculation of non-powdery mildew diseases, an aqueous spore suspension of the pathogen is applied to the plant and the plants are kept 1-2 days in a moist infection chamber before being returned to the greenhouse where they are maintained by bottom watering.
(§6) 4. Disease on the foliage as percent leaf area with disease symptoms/signs is evaluated about 7 days after inoculation. In the case of wheat, the tips and bases of the leaves are excluded from the evaluation. [formula]
(§7) 1. Technical compounds are formulated in a solvent/surfactant system consisting of 5% acetone and 0.05% Tween 20 in deionized water. Compounds are dissolved in acetone prior to addition of the water; the Tween 20 can be added through either the acetone or the water. Dilutions are made using the solvent/surfactant system. Formulated compounds are prepared using deionized water.
(§8) Assessments of the diseases took place at the indicated day after the application of the compounds. Per cent infected leaf area infected was evaluated. The efficacy of the compounds/compounds mixtures to control the diseases was calculated by using the formula given above under item 4: […]
(§9) Synergy was calculated using the % disease control values of specific treatments for the two COLBY formula given hereinabove
Fungicidal Efficacy of the Mixture of BP-4+Other Fungicides (4 Day Residual) Against Puccinia recondita on Wheat
Fungicidal Efficacy of the Mixture of BP4+Other Fungicides (4 Day Residual) Against Puccinia recondita on Wheat
Fungicidal Efficacy of the Mixture of BP-4+Myclobutanil (4 Day Residual) Against Puccinia recondita on Wheat

Pyrenophora teres = experiment: Greenhouse test, 4 day residual, Pyrenophora teres on barley (Examples 13, 16); conditions: 96 h, single product, read-out: Observed Efficacy; for pest or weed control at 0.4 ppm: dose rate 0.4 ppm; for pest or weed control at 2 ppm: dose rate 2 ppm; for pest or weed control at 10 ppm: dose rate 10 ppm; for pest or weed control at 50 ppm: dose rate 50 ppm
Protocol: as §1, §2, §3, §4, §5, §6, §7, §8, §9
Fungicidal Efficacy of the Mixture of BP4+Other Fungicides (4 Day Residual) Against Pyrenophora teres on barley
Fungicidal Efficacy of the Mixture of BP4+Other Fungicides (4 Day Residual) Against Pyrenophora teres on Barley

[1] = system: Blumeria graminis f. sp. tritici; experiment: Greenhouse test, 2 day curative, Blumeria graminis f. sp. tritici on wheat (Example 17); conditions: Table XVII, single compound
Protocol: as §1, §2, §3, §4
(§10) For inoculation of powdery mildew disease, plants are set up on greenhouse benches with bottom watering mats and inoculated by dusting them with conidia from infected plants. Between inoculation and treatment for curative evaluations and between treatment and inoculation for residual evaluations, plants are maintained in the greenhouse with bottom watering.
as §6, §7, §8, §9
Fungicidal Efficacy of the Mixture of Different Benzophenones+Metconazole (2 Day Curative) Against Blumeria graminis f. sp. tritici on Wheat

Leptosphaeria nodorum = experiment: Greenhouse test, 4 day residual, Leptosphaeria nodorum on wheat (Examples 8, 10); conditions: Parastagonospora nodorum, 96 h, single compound, read-out: Observed Efficacy; for pest or weed control at 4 ppm: dose rate 4 ppm; for pest or weed control at 16 ppm: dose rate 16 ppm; for pest or weed control at 64 ppm: dose rate 64 ppm; for pest or weed control at 256 ppm: dose rate 256 ppm
Text: as §1, with “The” for “The trials are carried out under greenhouse (Examples 1 to 18) or field conditions (Example 19) in residual or curative applications. The”
as §2, §3, §4, §5, §6, §7, §8, §9

Uncinula necator = experiment: Greenhouse test, 1 day residual, Uncinula necator on vines (Example 18); conditions: Table XVIII, single compound
Protocol: as §1, §2, §3, §4, §10, §6, §7, §8, §9
Fungicidal Efficacy of the Mixture of BP-4+AP-4 (1 Day Residual) Against Uncinula necator on Vines

Erysiphe cichoracearum = experiment: Greenhouse test, 4 day residual, Erysiphe cichoracearum on cucumbers (Examples 6, 11, 14); conditions: Golovinomyces cichoracearum, 96 h, read-out: Observed Efficacy; for pest or weed control at 0.4 ppm: dose rate 0.4 ppm; for pest or weed control at 2 ppm: dose rate 2 ppm; for pest or weed control at 10 ppm: dose rate 10 ppm; for pest or weed control at 50 ppm: dose rate 50 ppm
Protocol: as §1, §2, §3, §4, §10, §6, §7, §8, §9
Fungicidal Efficacy of the Mixture of BP-4+Other Fungicides (4 Day Residual) Against Erysiphe cichoracearum on Cucumbers
Fungicidal Efficacy of the Mixture of BP4+Other Fungicides (4 Day Residual) Against Erysiphe cichoracearum on Cucumbers

[2] = Example 15, Table XV, single product, wheat
[3] = Example 14, Table XIV, single product, cucumbers
[4] = Table XI, single compound or product

Question: For `CC(C1CC1)C(O)(Cn1cncn1)c1ccc(Cl)cc1` (stereo not drawn) [Cyproconazole], which pest or weed control at 0.4 ppm (Puccinia recondita; [2]) is on record?
Answer: Its pest or weed control at 0.4 ppm is 58%.

Question: What does the source list for `COc1cc(C)c(C(=O)c2c(C)ccc(Br)c2OC)c(OC)c1OC` [BP-4, 3-bromo-2′,6-dimethyl-2,4′,5′,6′-tetramethoxybenzophenone]?
Answer: pest or weed control at 0.4 ppm (Pyrenophora teres; Example 13, Table XIII): 0%; pest or weed control at 2 ppm (Pyrenophora teres; Example 13, Table XIII): 0%; pest or weed control at 10 ppm (Pyrenophora teres; Example 13, Table XIII): 34%; pest or weed control at 50 ppm (Pyrenophora teres; Example 13, Table XIII): 58%; pest or weed control at 0.4 ppm (Pyrenophora teres; Example 16, Table XVI): 0%; pest or weed control at 2 ppm (Pyrenophora teres; Example 16, Table XVI): 0%; pest or weed control at 10 ppm (Pyrenophora teres; Example 16, Table XVI): 0%; pest or weed control at 50 ppm (Pyrenophora teres; Example 16, Table XVI): 11%; Observed Efficacy ([1]; dose rate 0.67 ppm): 9%; Observed Efficacy ([1]; dose rate 2 ppm): 27%; Observed Efficacy ([1]; dose rate 6 ppm): 42%; Observed Efficacy ([1]; dose rate 18 ppm): 78%; Observed Efficacy ([1]; dose rate 54 ppm): 92%; pest or weed control at 4 ppm (Leptosphaeria nodorum; Table VIII): 0%; pest or weed control at 16 ppm (Leptosphaeria nodorum; Table VIII): 0%; pest or weed control at 64 ppm (Leptosphaeria nodorum; Table VIII): 14%; pest or weed control at 256 ppm (Leptosphaeria nodorum; Table VIII): 34%; pest or weed control at 4 ppm (Leptosphaeria nodorum; Table X): 0%; pest or weed control at 16 ppm (Leptosphaeria nodorum; Table X): 10%; pest or weed control at 64 ppm (Leptosphaeria nodorum; Table X): 18%; pest or weed control at 256 ppm (Leptosphaeria nodorum; Table X): 44%; pest or weed control at 0.4 ppm (Puccinia recondita; [2]): 0%; pest or weed control at 2 ppm (Puccinia recondita; [2]): 0%; pest or weed control at 10 ppm (Puccinia recondita; [2]): 6%; pest or weed control at 50 ppm (Puccinia recondita; [2]): 12%; pest or weed control at 4 ppm (Puccinia recondita; Table IX, single compound): 6%; pest or weed control at 16 ppm (Puccinia recondita; Table IX, single compound): 4%; pest or weed control at 64 ppm (Puccinia recondita; Table IX, single compound, dose rate 64 ppm): 16%; pest or weed control at 256 ppm (Puccinia recondita; Table IX, single compound, dose rate 256 ppm): 38%; pest or weed control at 4 ppm (Puccinia recondita; Table VII, single compound): 0%; pest or weed control at 16 ppm (Puccinia recondita; Table VII, single compound): 0%; pest or weed control at 0.4 ppm (Puccinia recondita; Table XII, single compound): 2%; pest or weed control at 2 ppm (Puccinia recondita; Table XII, single compound): 7%; pest or weed control at 10 ppm (Puccinia recondita; Table XII, single compound): 10%; pest or weed control at 50 ppm (Puccinia recondita; Table XII, single compound): 31%; Observed Efficacy (Uncinula necator; dose rate 0.25 ppm): 0%; Observed Efficacy (Uncinula necator; dose rate 0.5 ppm): 21%; Observed Efficacy (Uncinula necator; dose rate 1 ppm): 28%; Observed Efficacy (Uncinula necator; dose rate 2 ppm): 9%; Observed Efficacy (Uncinula necator; dose rate 4 ppm): 43%; Observed Efficacy (Uncinula necator; dose rate 8 ppm): 42%; pest or weed control at 0.4 ppm (Erysiphe cichoracearum; [3]): 0%; pest or weed control at 2 ppm (Erysiphe cichoracearum; [3]): 0%; pest or weed control at 10 ppm (Erysiphe cichoracearum; [3]): 13%; pest or weed control at 50 ppm (Erysiphe cichoracearum; [3]): 97%; pest or weed control at 1 ppm (Erysiphe cichoracearum; Table VI, single compound, dose rate 1 ppm): 1%; pest or weed control at 4 ppm (Erysiphe cichoracearum; Table VI, single compound, dose rate 4 ppm): 6%; pest or weed control at 16 ppm (Erysiphe cichoracearum; Table VI, single compound, dose rate 16 ppm): 51%; pest or weed control at 64 ppm (Erysiphe cichoracearum; Table VI, single compound, dose rate 64 ppm): 100%; pest or weed control at 0.4 ppm (Erysiphe cichoracearum; [4]): 0%; pest or weed control at 2 ppm (Erysiphe cichoracearum; [4]): 2%; pest or weed control at 10 ppm (Erysiphe cichoracearum; [4]): 55%; pest or weed control at 50 ppm (Erysiphe cichoracearum; [4]): 96%

Reference: US6521628B1, “Fungicidal mixtures” (BASF Aktiengesellschaft, priority 1999, dated 2003)
